Patent publication US9765039B2, “Biaryl derivatives as bromodomain inhibitors” (Zenith Epigenetics Ltd., priority 2012, dated 2017)

Legend:
Human AML MV-4-11 cells = experiment: Inhibition of cell proliferation in cancer cell lines (CellTiter Aqueous One); assay type: cell-based; design: key: Active: Compounds with an IC50 value less than 30 μM were deemed to be active.; Not Active: Compounds with an IC50 value less than 30 μM were deemed to be active; details: 72 hours
How it was run: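 Exponentially growing MV-4-11 cells were treated immediately with two-fold compound dilutions from 30 µM to 0.2 µM in triplicate for 72 h at 37 °C. Viability was read by MTS (CellTiter Aqueous One) absorbance at 490 nm after 3-4 h; % proliferation vs DMSO gave IC50.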

hIL-6 mRNA = experiment: Inhibition of hIL-6 mRNA transcription in LPS-stimulated U937 macrophages; assay type: cell-based, human; design: key: Active: Compounds with an IC50 value less than 30 μM are deemed to be active; details: U937 differentiated into macrophages, 1 h pretreatment, lipopolysaccharide 3 h
How it was run: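 U937 cells differentiated 3 days with 60 ng/mL PMA, pretreated 1 h with compound, then stimulated with […] E. coli LPS for 3 h at 37° C. hIL-6 mRNA quantified by one-step real-time RT-PCR, Ct normalised to internal control and expressed as fold induction relative to control.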

arthritic rats = experiment: In vivo efficacy in rat collagen induced arthritis; design: species or system female Lewis strain of rats; details: collagen Day 1 and 7, dosed Day 11 to Day 17
Experimental: Rat collagen-induced arthritis is an experimental model of polyarthritis that has been widely used for preclinical testing of numerous anti-arthritic agents. Following administration of collagen, this model establishes a measurable polyarticular inflammation, marked cartilage destruction in association with pannus formation and mild to moderate bone resorption and periosteal bone proliferation. In this model, collagen was administered to female Lewis strain of rats on Day 1 and 7 of study and dosed with compounds from Day 11 to Day 17. Compounds were evaluated to assess the potential to inhibit the inflammation (including paw swelling), cartilage destruction and bone resorption in arthritic rats, using a model in which the treatment is administered after the disease has been established.

COc1cc(OC)c2c(=O)[nH]c(-c3ccc(OCCNC(C)C)c(-c4ccc([S+](C)[O-])cc4)n3)nc2c1 (stereo not drawn) [Example 41, 2-(5-(2-(Isopropylamino)ethoxy)-6-(4-(methylsulfinyl)phenyl)pyridin-2-yl)-5,7-dimethoxyquinazolin-4(3H)-one]
Active: cell proliferation activity (IC50 < 30 μM) (Human AML MV-4-11 cells) | IL-6 activity (IC50 < 30 μM) (hIL-6 mRNA) | In vivo Activity (arthritic rats)
